From patent US5206247A, “Spiro(4.5.)decane compounds” (Adir Et Compagnie, priority 1990, dated 1993) come the findings set out here.

The IC50 is the concentration that gives 50% inhibition.

Where only a bound is given, the exact number is not on record here.

The subject of assay [1] is human LDLs. In words: Modification of the LDLs by copper sulphate (MDA formation). The format is biochemical. Particulars: for ability to protect human LDLs compared with probucol or vitamin E, copper sulphate: modifications induced by copper sulphate; for IC50: oxidation by copper sulphate, 24 hours, read-out: IC50 Cu^2+ (inhibition of lipid peroxidation of human LDLs, MDA production). Here is the method: Human LDLs are incubated for 24 hours in the presence of copper sulphate (5×10^-5 M or 5×10^-6 M) and in the absence or presence of the test compounds (10^-7 M to 10^-4 M).
After incubation, the peroxidation of the LDLs is evaluated by electrophoresis on agar gel and by the formation of one of the products of lipid peroxidation: malonic dialdehyde (MDA) (Parthasarathy S., Young S. G., Witztum J. L., Pittman R. C., and Steinberg D.; J. Clin. Invest. 77, 641-644, 1986).
The activity of the test compounds is evaluated by calculating the concentrations that reduce the production of MDA by 50% (IC50) compared with control experiments carried out in the absence of test compound.
(§1) Table A lists the IC50 values, which indicate the capacity to inhibit the lipid peroxidation of human LDLs, obtained with a sample of the compounds of the invention and of the reference compounds probucol and vitamin E, in two tests causing the development of the oxidation of the LDLs: by copper sulphate (Cu^2+) or by endothelial cells (EC).

Assay [2] has as its system human LDLs. Briefly: Modification of the LDLs by endothelial cells (MDA formation). The format is cell-based. As to conditions: for ability to protect human LDLs compared with probucol or vitamin E, endothelial cells: modifications induced by endothelial cells; for times more powerful than probucol (endothelial cells): test using endothelial cells; for IC50: oxidation by rabbit aorta endothelial cells, 24 hours, read-out: IC50 EC (inhibition of lipid peroxidation of human LDLs, MDA production). As to the method:
Human LDLs are incubated for 24 hours in the presence of rabbit aorta endothelial cells (line RECL B4 supplied by Professor Steinberg, USA) and in the absence or presence of the test compounds (10^-7 M to 10^-4 M).
After incubation, the peroxidation of the LDLs is evaluated by electrophoresis on agar gel and by the formation of one of the products of lipid peroxidation: malonic dialdehyde (MDA) (Steinbrecher U.P., Parthasarathy S, Leake D. S., Witztum J. L., and Steinberg D., Proc. Nat. Acad. Sci. USA 81. 3883-3887, 1984).
The activity of the test compounds is evaluated by calculating the concentrations that reduce the production of MDA by 50% (IC50) compared with the control experiments carried out in the absence of test compound.
as §1

The test system of another assay is cardiac cells. Briefly: Oxidative necrosis of cardiac cells induced by hypoxanthine/xanthine oxidase. The format is cell-based, new-born rats. As to conditions: for effect on oxidative necrosis of cardiac cells compared with reference compounds: 10^-6 M and 10^-5 M; for activity at 10 µM / activity at 1 µM / activity at 0.1 µM / index of necrosis of cardiac cells: control = 100, means ± sem; for activity at 10 µM / activity at 1 µM / activity at 0.1 µM: read-out: index of necrosis of cardiac cells; for inhibition at 10 µM / inhibition at 1 µM: Cardiomyocyte, read-out: reduction of oxidative necrosis of cardiomyocytes; for index of necrosis of cardiac cells: 240 min. As to the method:
Cardiac cells of new-born rats are used between the 5th and 6th days after placing in a culture. Oxidative necrosis is induced by the enzymatic system hypoxanthine (HX, 1 mM) and xanthine oxidase (XO, 10 mU/ml), which produces free radicals. The necrosis is evaluated 4 hours after the addition of XO/HX by the spectrophotometric measurement of the cytosolic α-hydroxybutyrate dehydrogenase (α-HBDH) activity liberated in the supernatant. Two reference molecules (probucol, vitamin E) and 3 molecules representative of the present invention (corresponding to Examples 1, 3 and 4) were tested. The cells are treated with the molecules 16 hours and 1 hour before the beginning of the experiment after renewing the medium. At the beginning of the experiment, the treatment is carried out one last time.
Table B lists the indices of the necrosis of cardiac cells induced by the system hypoxanthine/xanthine oxidase on its own or in the presence of increasing concentrations of the compounds of the invention or of the reference compounds: probucol and vitamin E.
The necrosis index 100 corresponds to a liberation of 43.6±1.0% in 4 hours of the cytosolic content of α-HBDH in the supernatant.
The results are expressed in the form of means ± sem (4≤n≤5, 3 repetitions per experiment).

Assay [3] relates to LDLs of the Watanabe rabbits. In words: Ex vivo copper sulphate oxidation of LDLs from orally treated Watanabe rabbits (MDA production). The format is in vivo. As to conditions: for MDA production: 3 days; for dose from which peroxidation of the LDLs is inhibited: oral, peroxidation induced by copper sulphate. As to the method:
Watanabe rabbits ([…] hyperlipidaemic rabbits) are used that range in weight from 3 kg to 5 kg. The animals are treated orally with the carrier of the test compounds (control group) or with the test compounds at doses of 10, 50 and 250 mg/kg/day for 3 days.
When the treatment is complete, the LDLs of the animals are prepared by ultracentrifugation and subjected to oxidation with copper sulphate (5×10^-6 M). The lipid peroxidation of the LDLs is evaluated after various periods of incubation with copper sulphate (from 2 to 24 hours) by measuring the formation of MDA.
Table C lists the MDA production values according to the incubation period with copper sulphate of those LDLs originating from the control animals and those originating from the animals treated with the compounds of Examples 1, 3 and 31 at different doses or with probucol.

[4] abbreviates: Rattus norvegicus, 4 h, 10^-5 M.
Setting [5] is: Rattus norvegicus, 4 h, 10^-6 M.
[6] abbreviates: Rattus norvegicus, 4 h, 10^-7 M.
Where [7] appears, read: 250 mg/kg/day oral, 2 hours incubation with copper sulphate.
[8] abbreviates: 250 mg/kg/day oral, 4 hours incubation with copper sulphate.
Where [9] appears, read: 250 mg/kg/day oral, 6 hours incubation with copper sulphate.
Where [10] appears, read: 250 mg/kg/day oral, 8 hours incubation with copper sulphate.
[11] abbreviates: 250 mg/kg/day oral, 24 hours incubation with copper sulphate.

For `CC(C)(C)c1cc(SCC(O)CN2CCC3(CC2)CNC(=O)O3)cc(C(C)(C)C)c1O` (racemic) [Example 1, (R,S)-8-[3-(3,5-di-tert.-butyl-4-hydroxyphenylthio)-2-hydroxypropyl]-1-oxa-2-oxo-3,8-diazaspiro[4.5]decane], the “ability to protect human LDLs compared with probucol or vitamin E, copper sulphate” value in the assay on human LDLs [1] is reported as “greater ability”. For the same compound, the “ability to protect human LDLs compared with probucol or vitamin E, endothelial cells” value in the assay with human LDLs [2] is reported as “greater ability”. The “times more powerful than probucol (endothelial cells)” value (“times more powerful than probucol” below) in the assay with human LDLs [2] came to 100 times. Besides, in the assay on cardiac cells, the “effect on oxidative necrosis of cardiac cells compared with reference compounds” value was “distinctly superior to the reference compounds”. Also, in the assay with cardiac cells (setting [4]), the activity at 10 µM turned out to be 3.8 ± 1.9%. In addition, the activity at 1 µM in the assay with cardiac cells (setting [5]) stood at 19.1 ± 7.3%. Also, the activity at 0.1 µM with cardiac cells (setting [6]) came out at 42.8 ± 11.3%. Besides, in the assay on cardiac cells (Rattus norvegicus, 4 h, starting from 10^-7 M, read-out: protective effect on oxidative necrosis of cardiac cells), the inhibition at 0.1 µM was more than 50%. The inhibition at 10 µM with cardiac cells (setting [4]) was more than 95%. Moreover, in the assay with cardiac cells (setting [5]), the inhibition at 1 µM was more than 80%. In addition, the MDA production is 0.2 nM/mg proteins in assay [3] (setting [7]); 1.27 nM/mg proteins in assay [3] (setting [8]); 0 nM/mg proteins in assay [3] (setting [9]); 0 nM/mg proteins in assay [3] (setting [10]); 1.02 nM/mg proteins in assay [3] (setting [11]). Moreover, in assay [3], the “dose from which peroxidation of the LDLs is inhibited” value is reported as not below 50 mg/kg/day.

With `CC(C)(C)c1cc(SCCCCCN2CCC3(CC2)CNC(=O)O3)cc(C(C)(C)C)c1O` [Example 4], in the assay on human LDLs [1], the “ability to protect human LDLs compared with probucol or vitamin E, copper sulphate” value is “greater ability” and the IC50 came out at 800 nM. Also, in the assay on human LDLs [2], the “ability to protect human LDLs compared with probucol or vitamin E, endothelial cells” value is given as “greater ability”; the IC50 came to 20 nM; the “times more powerful than probucol” value is recorded as 100 times. Moreover, the “effect on oxidative necrosis of cardiac cells compared with reference compounds” value in the assay on cardiac cells was “distinctly superior to the reference compounds”. Also, in the assay on cardiac cells (setting [4]), the activity at 10 µM worked out at 2.6 ± 0.7% and the inhibition at 10 µM is more than 95%. Moreover, in the assay with cardiac cells (setting [5]), the activity at 1 µM worked out at 2.1 ± 1% and the inhibition at 1 µM was more than 80%. The activity at 0.1 µM in the assay on cardiac cells (setting [6]) was determined as 79.1 ± 8%.

Turning to `CC(C)(C)c1cc(OCCCCCN2CCC3(CC2)CNC(=O)O3)cc(C(C)(C)C)c1O` [Example 5], in the assay with human LDLs [1], the “ability to protect human LDLs compared with probucol or vitamin E, copper sulphate” value was “greater ability” and the IC50 came to 700 nM. Moreover, in the assay on human LDLs [2], the “ability to protect human LDLs compared with probucol or vitamin E, endothelial cells” value was “greater ability” and the concentration for half-maximal inhibition (IC50) came to 800 nM.

Turning to `CC(C)(C)c1cc(OCCCN2CCC3(CC2)CNC(=O)O3)cc(C(C)(C)C)c1O` [Example 6], in the assay on human LDLs [1], the “ability to protect human LDLs compared with probucol or vitamin E, copper sulphate” value was “greater ability” and the IC50 amounted to 300 nM. In the assay with human LDLs [2], the “ability to protect human LDLs compared with probucol or vitamin E, endothelial cells” value is “greater ability” and the concentration for half-maximal inhibition (IC50) was 300 nM.

In the case of `CC(C)(C)c1cc(OCC(O)CN2CCC3(CC2)CNC(=O)O3)cc(C(C)(C)C)c1O` (stereo not shown) [Example 7], in the assay on human LDLs [1], the IC50 was 2000 nM.

Regarding `Cc1cc(OCCCCCN2CCC3(CC2)CNC(=O)O3)c(C)c(C)c1O` [Example 30], the IC50 with human LDLs [1] was 300 nM.

`CC(C)(CCN1CCC2(CC1)CNC(=O)O2)Sc1cc(C(C)(C)C)c(O)c(C(C)(C)C)c1` [Example 31]: in the assay on human LDLs [1], the “ability to protect human LDLs compared with probucol or vitamin E, copper sulphate” value is reported as “greater ability”. Further, the IC50 was determined as 800 nM in the assay on human LDLs [1] and 20 nM in the assay on human LDLs [2]. Also, in the assay with human LDLs [2], the “ability to protect human LDLs compared with probucol or vitamin E, endothelial cells” value is recorded as “greater ability”. The MDA production in assay [3] (50 mg/kg/day oral, 2 hours incubation with copper sulphate) amounted to 0.33 nM/mg proteins; in assay [3] (50 mg/kg/day oral, 4 hours incubation with copper sulphate) it was 0.72 nM/mg proteins; in assay [3] (50 mg/kg/day oral, 6 hours incubation with copper sulphate), 1.03 nM/mg proteins; in assay [3] (50 mg/kg/day oral, 8 hours incubation with copper sulphate), 1.04 nM/mg proteins; in assay [3] (50 mg/kg/day oral, 24 hours incubation with copper sulphate), 3.16 nM/mg proteins; in assay [3] (setting [7]), 0.19 nM/mg proteins. Also, the MDA production in assay [3] (setting [8]) is on record as 0.51 nM/mg proteins; in assay [3] (setting [9]) it was 0.16 nM/mg proteins; in assay [3] (setting [10]), 0.71 nM/mg proteins; in assay [3] (setting [11]), 0.99 nM/mg proteins. Besides, the “dose from which peroxidation of the LDLs is inhibited” value in assay [3] is recorded as not below 50 mg/kg/day.

With `Cc1cc(SCC(O)CN2CCC3(CC2)CNC(=O)O3)c(C)c(C)c1O` (stereo not shown) [Example 32], the IC50 with human LDLs [1] turned out to be 300 nM. Besides, the “times more powerful than probucol” value with human LDLs [2] was 100 times.

For `Cc1c(C)c2c(c(C)c1O)CCC(C)(CCN1CCC3(CC1)CNC(=O)O3)O2` (stereo not shown) [Example 33], the IC50 with human LDLs [1] was 300 nM.

`Cc1c(C)c2c(c(C)c1O)CCC(C)(CCCN1CCC3(CC1)CNC(=O)O3)O2` (stereo not shown) [Example 34]: in the assay with human LDLs [1], the IC50 was found to be 300 nM.

With vitamin E [reference compound], the half-inhibitory concentration (IC50) was more than 100000 nM in the assay on human LDLs [1] and 4000 nM with human LDLs [2]. Also, the “index of necrosis of cardiac cells” value in the assay with cardiac cells (10^-5 M, 10 µM) is recorded as 61.1 ± 2.5; in the assay on cardiac cells (10^-6 M, 1 µM), 79.0 ± 7.4; with cardiac cells (10^-7 M, 0.1 µM), 83.5 ± 8.0.
